IC50 data for 65 molecules are collected here from patent US20250214977A1, “STAT6 INHIBITORS AND USES THEREOF” (Kymera Therapeutics, Inc., priority 2024, published 2025).

This experiment relates to Phosphorylation of STAT6 in human PBMC (CD19+ B cells). Description: Phosphorylated STAT6 (pSTAT6) flow cytometry assay in human PBMC, IL-4 stimulated. The format is cell-based. As to conditions: compound 1 hour, 1 ng/ml IL-4 for 15 minutes, read-out: STAT6 IL4 pSTAT6 assay in PBMC: Average IC50. A digest of the protocol:
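Human PBMC preincubated 1 h at 37 °C with compound (9-point 1:3 series, top up to 30 μM), then stimulated with 1 ng/ml IL-4 for 15 min. After fixation, methanol permeabilization and staining, pSTAT6 quantified in CD19+ B cells by flow cytometry; four-parameter fit of inhibition.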

Turning to `CC(=O)NC(Cn1ccnn1)C(=O)N1CCC=C(c2ccc3oc(C(=O)N(C)C)cc3c2)C1` (centres unmarked) [Example I-178], the IC50 was more than 100 µM.
As to `CN(C)C(=O)c1cc2cc(C3=CCCN(C(=O)Cc4cncnc4)C3)ccc2o1` [Example I-293], the IC50 was more than 100 µM.
Regarding `CN(C)C(=O)c1cc2cc(C3=CCCN(C(=O)CCc4cn5ccccc5n4)C3)ccc2o1` [Example I-251], the 50% inhibitory concentration (IC50) is more than 100 µM.
As to `CCC(=O)N1Cc2ccccc2CC1C(=O)N1CCC=C(c2ccc3oc(C(=O)N(C)C)cc3c2)C1` (centres unmarked) [Example I-188], the IC50 is more than 100 µM.
`CC(=O)N1CCc2ccc(CC(=O)N3CCC=C(c4ccc5oc(C(=O)N(C)C)cc5c4)C3)cc2C1` [Example I-193]: the IC50 was more than 100 µM.
Under `CN(C)C(=O)c1cc2cc(C3=CCCN(C(=O)Cc4ccc5ncnn5c4)C3)ccc2o1` [Example I-286] stands more than 100 µM; under `COC(=O)c1cnn(-c2cc(C3=CCCN(C(=O)CCn4ccnn4)C3)cc3cc(C(=O)N(C)C)oc23)c1` [Example I-186], more than 100 µM.
Under `CN(C)C(=O)c1cc2cc(C3=CCCN(C(=O)CCc4cccc5ccccc45)C3)ccc2o1` [Example I-291] stands more than 100 µM.
Consider `CN(C)C(=O)c1cc2cc(C3=CCCN(C(=O)Cc4ccncc4)C3)ccc2o1` [Example I-279], for which the IC50 was more than 100 µM.
Under `CN(C)C(=O)c1ccc2c(C3=CCCN(C(=O)CCn4ccnn4)C3)c[nH]c2c1` [Example I-317] stands more than 100 µM; under `COC(=O)c1ccc(OCC(=O)N2CCC=C(c3ccc4cc(C(=O)N(C)C)[nH]c4c3)C2)cc1` [Example I-142], more than 100 µM.
`CN(C)C(=O)c1cc2cc(C3=CCCN(C(=O)CCc4ncccn4)C3)ccc2o1` [Example I-231]: the IC50 was more than 100 µM.
`CN(C)C(=O)c1cc2ccc(C3=CCCN(C(=O)CC(c4ccccc4)c4ccccc4)C3)cc2[nH]1` [Example I-91]: the IC50 was 10 to 100 µM.
Take `CNCc1cc(C2=CCCN(C(=O)CCn3ccnn3)C2)cc2cc(C(=O)N(C)C)oc12` [Example I-203]: the IC50 is 10 to 100 µM.
The value for `CN(C)C(=O)c1cc2ccc(C3=CCCN(C(=O)Cn4ccccc4=O)C3)cc2[nH]1` [Example I-316] was more than 100 µM; that for `CN(C)C(=O)c1cc2cc(C3=CCCN(C(=O)CCn4nnc5ccccc54)C3)ccc2o1` [Example I-217] was more than 100 µM; that for `CN(C)C(=O)c1cc2ccc(C3=CCCN(C(=O)CCc4nn[nH]n4)C3)cc2[nH]1` [Example I-15] was 10 to 100 µM.
In the case of `CC(=O)c1cc(C(=O)N2CCC=C(c3ccc4cc(C(=O)N(C)C)[nH]c4c3)C2)n[nH]1` [Example I-49], the IC50 is 10 to 100 µM.
The value for `CC(=O)NCc1ccc(CC(=O)N2CCC=C(c3ccc4oc(C(=O)N(C)C)cc4c3)C2)cc1` [Example I-252] was more than 100 µM; that for `CN(C)C(=O)c1cc2ccc(C3=CCCN(C(=O)C4CCC4C(=O)O)C3)cc2[nH]1` (centres unmarked) [Example I-39] was 10 to 100 µM.
The value for `CC(=O)N1Cc2ccccc2CC1C(=O)N1CCC=C(c2ccc3oc(C(=O)N(C)C)cc3c2)C1` (centres unmarked) [Example I-182] was more than 100 µM.
As to `CN(C)C(=O)c1cc2cc([C@H]3CN(C(=O)CCn4ccnn4)CC[C@@H]3O)ccc2o1` (single isomer, unassigned) [Example I-210], the half-inhibitory concentration (IC50) is more than 100 µM.
Turning to `CNC1(C(=O)N2CCC=C(c3ccc4oc(C(=O)N(C)C)cc4c3)C2)CCc2ccccc2C1` (centres unmarked) [Example I-5], the 50% inhibitory concentration (IC50) lay within 10 to 100 µM.
Regarding `CN(C)C(=O)c1cc2cc(C3=CCCN(C(=O)Cc4ccc5c(c4)CN(C(=O)OC(C)(C)C)CC5)C3)ccc2o1` [Example I-259], the concentration for half-maximal inhibition (IC50) is more than 100 µM.
Under `CN(C)C(=O)c1cc2ccc(C3=CCCN(C(=O)c4ccc(O)c(F)c4)C3)cc2[nH]1` [Example I-48] stands 10 to 100 µM; under `CN(C)C(=O)c1cc2cc(C3=CCCN(C(=O)CCc4nc5ccccc5s4)C3)ccc2o1` [Example I-237], more than 100 µM.
Take `CN(C)C(=O)c1cc2cc(C3=CCCN(C(=O)CCn4ccnn4)C3)ccc2[nH]1` [Example I-308]: the IC50 was more than 100 µM.
Take `CN(C)C(=O)c1cc2ccc(C3=CCCN(C(=O)CC(C)(O)C(F)(F)F)C3)cc2[nH]1` (centres unmarked) [Example I-46]: the IC50 was 10 to 100 µM.
Consider `CN(C)C(=O)c1cc2cc(C3=CCCN(C(=O)CCn4ccnn4)C3)cnc2[nH]1` [Example I-222], for which the IC50 was 10 to 100 µM.
Regarding `CN(C)C(=O)c1cc2cc(C3=CCCN(C(=O)CCc4ccc5ccccc5c4)C3)ccc2o1` [Example I-266], the IC50 is more than 100 µM.
As to `CN(C)C(=O)c1cc2ccc(C3=CCCN(C(=O)C4CC4F)C3)cc2[nH]1` (centres unmarked) [Example I-322], the IC50 is 10 to 100 µM.
For `CN(C)C(=O)c1cc2cc(C3=CCCN(C(=O)C4Cc5c(cccc5-n5cccn5)CN4C=O)C3)ccc2o1` (centres unmarked) [Example I-172], the IC50 is more than 100 µM.
As to `CN(C)C(=O)c1cc2cc(C3=CCCN(C(=O)CCn4ccnc4)C3)ccc2o1` [Example I-310], the IC50 was more than 100 µM.
The value for `CN(C)C(=O)c1cc2cc([C@H]3CC[C@H](CO)N(C(=O)CCn4ccnn4)C3)ccc2o1` (single isomer, unassigned) [Example I-157] was more than 100 µM.
As to `C[C@@H]1CCCCN1C(=O)c1cc2ccc(C3=CCCN(C(=O)CCn4ccnn4)C3)cc2[nH]1` (single isomer, unassigned) [Example I-130], the half-maximal inhibitory concentration (IC50) was more than 100 µM.
As for `C[C@H](Cn1ccnn1)C(=O)N1CCC=C(c2ccc3oc(C(=O)N(C)C)cc3c2)C1` (single isomer, unassigned) [Example I-228], the IC50 fell in the range of 10 to 100 µM.
As to `CN(C)C(=O)c1cc2cc(C3CCCN(C(=O)CCn4ccnn4)C3)ccc2o1` (centres unmarked) [Example I-305], the IC50 was more than 100 µM.
Take `CN(C)C(=O)c1cc2cc(C3=CCCN(C(=O)CCc4cccnc4)C3)ccc2o1` [Example I-301]: the IC50 is more than 100 µM.
In the case of `CN(C)C(=O)c1cc2cc(C3=CCCN(C(=O)C4Cc5c(cccc5C5CCNCC5)CN4C=O)C3)ccc2o1` (centres unmarked) [Example I-181], the IC50 is more than 100 µM.
`CCC[C@@H](C(=O)N1CCC=C(c2ccc3cc(C(=O)N(C)C)[nH]c3c2)C1)N1Cc2ccccc2C1=O` [Example I-96]: the IC50 was in the range of 10 to 100 µM.
Regarding `CC1CCCN(C(=O)c2cc3ccc(C4=CCCN(C(=O)CCn5ccnn5)C4)cc3[nH]2)C1` (centres unmarked) [Example I-127], the IC50 was in the range of 10 to 100 µM.
Under `CN(C)C(=O)c1cn2ccc(C3=CCCN(C(=O)CCn4ccnn4)C3)cc2n1` [Example I-289] stands more than 100 µM; under `CN(C)C(=O)c1cc2ncc(C3=CCCN(C(=O)CCn4ccnn4)C3)cc2[nH]1` [Example I-194], more than 100 µM; under `CN(C)C(=O)c1cc2cc(C3=CCCN(C(=O)CCn4ccc5ccccc54)C3)ccc2o1` [Example I-264], more than 100 µM.
Consider `CN(C)C(=O)c1cc2ccc(C3=CCCN(C(=O)C4(C#N)CC4)C3)cc2[nH]1` [Example I-29], for which the IC50 lay within 10 to 100 µM.
The value for `CN(C)C(=O)c1cc2cc(C3=CCCN(C(=O)CCc4ccccn4)C3)ccc2[nH]1` [Example I-200] was more than 100 µM; that for `CN(C)C(=O)c1cc2ccc(C3=CCCN(C(=O)CCn4ccnn4)C3)cn2n1` [Example I-298] was more than 100 µM; that for `CN(C)C(=O)c1cc2ccc(C3=CCCN(C(=O)[C@@H]4C[C@H](c5ccccc5)CN4)C3)cc2[nH]1` [Example I-76] was more than 100 µM.
Take `CN(C)C(=O)c1cc2cc(C3=CCCN(C(=O)CCc4nccc5ccccc45)C3)ccc2o1` [Example I-206]: the IC50 was more than 100 µM.
Regarding `CN(C)C(=O)c1cc2cc(C3=CCCN(C(=O)Cc4ccncn4)C3)ccc2o1` [Example I-270], the IC50 is more than 100 µM.
Under `CN(C)C(=O)c1cc2ccc(C3=CCCN(C(=O)CN(C)S(=O)(=O)c4ccccc4)C3)cc2[nH]1` [Example I-75] stands 10 to 100 µM; under `COC(=O)c1ccc(CCC(=O)N2CCC=C(c3ccc4cc(C(=O)N(C)C)[nH]c4c3)C2)[nH]1` [Example I-68], 10 to 100 µM; under `CN(C)C(=O)c1cc2cc(C3=CCCN(C(=O)Cn4ncc5ccccc54)C3)ccc2o1` [Example I-284], more than 100 µM.
For the molecule `CN(C)C(=O)c1cc2ccc(C3=CCCN(C(=O)CCN4CCOC4=O)C3)cc2[nH]1` [Example I-134], the IC50 was more than 100 µM.
`NC(=O)c1cc2cc(C3=CCCN(C(=O)CCn4ccnn4)C3)ccc2o1` [Example I-213]: the 50% inhibitory concentration (IC50) was more than 100 µM.
Regarding `CN(C)C(=O)c1cc2cc(C3=CCCN(C(=O)CCn4ccnn4)C3)ccc2s1` [Example I-243], the IC50 is more than 100 µM.
For the molecule `CN(C)C(=O)c1cc2ccc(C3=CCCN(C(=O)c4cccnc4-c4cc(F)cc(F)c4)C3)cc2[nH]1` [Example I-94], the IC50 was 10 to 100 µM.
For the molecule `Cc1ccc(C(=O)N2CCC=C(c3ccc4cc(C(=O)N(C)C)[nH]c4c3)C2)c(=O)n1-c1ccc(F)cc1` [Example I-111], the IC50 is more than 100 µM.
`Cc1nc(CC(=O)N2CCC=C(c3ccc4cc(C(=O)N(C)C)[nH]c4c3)C2)no1` [Example I-41]: the IC50 is 10 to 100 µM.
Take `CN(C)C(=O)c1cc2cc(C3CCC(CO)N(C(=O)CCn4ccnn4)C3)ccc2o1` (centres unmarked) [Example I-154]: the half-inhibitory concentration (IC50) is more than 100 µM.
As for `Cc1cn(CCC(=O)N2CCC=C(c3ccc4cc(C(=O)N(C)C)[nH]c4c3)C2)nn1` [Example I-319], the IC50 was more than 100 µM.
The value for `CNC(=O)c1cc2cc(C3=CCCN(C(=O)CCn4ccnn4)C3)ccc2o1` [Example I-236] was more than 100 µM.
For the molecule `CN(C)C(=O)c1cc2ccc(C3=CCCN(C(=O)CNC(=O)c4cccc(C(F)(F)F)c4)C3)cc2[nH]1` [Example I-101], the IC50 was more than 100 µM.
For `C[C@H]1CCCCN1C(=O)c1cc2ccc(C3=CCCN(C(=O)CCn4ccnn4)C3)cc2[nH]1` (single isomer, unassigned) [Example I-129], the IC50 is more than 100 µM.
Under `CC(=O)N1Cc2ccccc2CC1C(=O)N1CCC=C(c2ccc3oc(C(=O)N(C)C)cc3c2)C1` (centres unmarked) [Example I-232] stands more than 100 µM.
